Data set [1] addresses T1, Human immunodeficiency virus type 1 protease (Human immunodeficiency virus 1, UniProt Q72874). Kind of data set: (§1) Inhibition of HIV-1 protease.
The target in data set [2] is Human immunodeficiency virus type 1 protease (Human immunodeficiency virus 1) (UniProt Q72874). The description is as §1.
The nature of data set [3]: Binding affinity to HIV protease assessed as inhibition constant. On the set-up: species or system Human immunodeficiency virus.
The test system of data set [4] is Human immunodeficiency virus. Put plainly: Antiviral activity against HIV. Particulars: Human immunodeficiency virus 1. It counts as functional, organism-based.
Data set [5] has as its system Human immunodeficiency virus 1. Kind of data set: Antiviral activity against HIV-1 RTMDR1 infected in human MT4 cells. The class given is functional, organism-based. Particulars: Human immunodeficiency virus 1, RTMDR1, MT4.
Data set [6] has as its system Human immunodeficiency virus 1. Kind of data set: Antiviral activity against HIV-1 infected in CEM-SS cells. Particulars: Human immunodeficiency virus 1, CEM-SS. It counts as functional, organism-based.
The target of data set [7] is Human immunodeficiency virus type 1 reverse transcriptase (Human immunodeficiency virus 1, UniProt Q72547). Put plainly: Inhibition of HIV1 reverse transcriptase.
Data set [8] is described as follows: Inhibition of HIV protease. Also noted: species or system Human immunodeficiency virus.
The nature of data set [9]: Inhibition of Hepatitis C virus NS5B polymerase. On the set-up: species or system Hepacivirus hominis.
For data set [10], the system named is Human immunodeficiency virus 1. Kind of data set: Antiviral activity against HIV-1 infected in human H9 cells. It counts as functional, organism-based. The note with it: Human immunodeficiency virus 1, H9.
The target of data set [11] is T1, Human immunodeficiency virus type 1 protease. Put plainly: Binding affinity to HIV-1 protease assessed as inhibition constant.
Data set [12] in a line: Therapeutic index, ratio of IC50 for cytotoxicity against human H9 cells to EC50 for antiviral activity against HIV-1 infected in H9 cells. Particulars: read-out: Ratio IC50/EC50. The class given is toxicity, cell-based.
Data set [13] can be described thus: Half life in dog. The class given is ADME, Canis lupus familiaris. Particulars: in vivo.
In data set [14] the test system is Human immunodeficiency virus. Put plainly: Antiviral activity against HIV infected in human H9 cells. The class given is functional, organism-based. Particulars: Human immunodeficiency virus 1, H9.
Data set [15] deals with Human alphaherpesvirus 1. Put plainly: Antiviral activity against Herpes simplex virus 1. The class given is functional, organism-based.
Data set [16] concerns the target Human immunodeficiency virus type 1 protease (Human immunodeficiency virus 1) (UniProt Q72874). Kind of data set: Inhibition of HIV-1 protease relative to control. The note with it: concentration not given here.
Data set [17] can be described thus: Antiviral activity against HIV-1 infected in human MT4 cells assessed as cell survival relative to control. The class given is functional, Human immunodeficiency virus 1.
In data set [18] the test system is Human immunodeficiency virus 1. Kind of data set: Antiviral activity against HIV-1. It counts as functional, organism-based.
The mark [19] stands for this setting: read-out: ED50 (the source's name).

Each structure is given as a SMILES string. ≈ marks a conversion by molar mass, not a printed value. Where “and” joins values, the source holds several entries; their conditions need not be identical. Equal entries are not always repeated.

As usually defined, the IC50 is the midpoint of a concentration-inhibition curve. Higher therefore signals lower potency. For the compound `O=c1oc2ccccc2c(O)c1C(c1ccc(C(c2c(O)c3ccccc3oc2=O)c2c(O)c3ccccc3oc2=O)cc1)c1c(O)c2ccccc2oc1=O`, in data set [1], the 50% inhibitory concentration (IC50) was determined as 11500 nM. In [2], this compound registered an ID50 of 1.7 µM. In general, Ki refers to a dissociation constant, usually derived from enzyme kinetics or from competition with a known ligand. Turning to `CCC(c1cccc(NC(=O)CCCNC(=O)OC(C)(C)C)c1)c1c(O)c2ccccc2oc1=O` (stereo unspecified), in [3], the Ki was 1600 nM. For the compound `CC(C)(C)OC(=O)NCCNc1cccc(C(c2c(O)c3c(oc2=O)CCCCCC3)C2CC2)c1` (stereo unspecified), the inhibitory constant (Ki) in data set [3] is 0.6 nM and 4 nM. Inhibition in [4] was half-maximal at 1000 nM (IC50).

In [1], `O=c1oc(-c2ccccc2)cc(O)c1C(SC1CCCC1)C1CCCC1` (stereo unspecified) came in with an IC50 of 225 nM. The compound `CCc1cc(=O)c2ccc3c(c2o1)[C@@H](OC(=O)[C@@]12CC[C@](C)(C(=O)O1)C2(C)C)[C@@H](OC(=O)C12CCC(C)(C(=O)O1)C2(C)C)C(C)(C)O3` came in with an EC50 in data set [5] of 60 nM. `O=c1oc(-c2ccccc2)cc(O)c1Sc1ccccc1` had an IC50 in data set [1] of 3000 nM. In data set [6], `CCCc1cc(=O)oc2c3c(c4c(c12)OC(C)(C)C=C4)O[C@H](C)[C@@H](C)C3=O` displayed an EC50 of 1200 nM. Further, the IC50 in [7] was 19 µM. As to `CCC(c1cccc(NC(=O)[C@H](C)NC(=O)OC(C)(C)C)c1)c1c(O)c2ccccc2oc1=O` (stereo partly specified), the inhibitory constant (Ki) in data set [3] came to 170 nM. For `O=c1oc2c(c(O)c1C(c1ccccc1)C1CC1)CCCCCC2` (stereo unspecified), the inhibition constant (Ki) in data set [3] was 15 nM. The concentration for half-maximal inhibition (IC50) in data set [8] came out at 57 µM. Turning to `CCCC(=O)Nc1cccc(C(c2c(O)c3c(oc2=O)CCCCCC3)C2CC2)c1` (stereo unspecified), the Ki in data set [3] is 24 nM.

With `CCC(c1cccc(NC(=O)CCn2ccc3ccccc32)c1)c1c(O)c2ccccc2oc1=O` (stereo unspecified), the inhibitory constant (Ki) in data set [3] stood at 110 nM. In the case of `COc1cc2c(cc1O)oc(=O)c1c3cc(O)c(O)cc3oc21`, 18.5 µM corresponded to half-maximal inhibition in data set [9] (IC50). For the compound `CC1(C)C=Cc2c(ccc3ccc(=O)oc23)O1` [SESALIN], the EC50 in [10] (read-out: EC50) turned out to be 3500 nM. In data set [1], `O=c1oc2ccccc2c(O)c1C(c1ccccc1)c1c(O)c2ccccc2oc1=O` registered an IC50 of 43000 nM. In data set [6], `CCCc1cc(=O)oc2c3c(c4c(c12)OC(C)(C)C=C4)O[C@H](C)[C@@H](C)[C@@H]3O` [CALANOLIDE A] displayed an EC50 of 100 nM. For the same compound, the midpoint of inhibition in data set [7], the IC50, lay at 20 µM. For the compound `COc1cc(O)c2c(c1)oc(=O)c1c3cc(O)c(O)cc3oc21` [WEDELOLACTONE], the 50% inhibitory concentration (IC50) in data set [9] was determined as 36.1 µM. Regarding `O=C(O)COc1ccc(-c2cc(O)c(SCCc3ccccc3)c(=O)o2)cc1`, the half-maximal inhibitory concentration (IC50) in data set [1] came out at 160 nM. For the compound `Cc1cc(SC2=C(O)C[C@@](CCc3ccc(N)cc3)(C(C)C)OC2=O)c(C(C)(C)C)cc1CO`, in data set [1], the EC50 is 200 nM.

`CSc1ccc(-c2cc3ccccc3oc2=O)cc1` returned a half-inhibitory concentration (IC50) in data set [4] of 18200 nM. Turning to `CCC(c1cccc(NS(=O)(=O)c2ccc(C#N)cn2)c1)c1c(O)c2c(oc1=O)CCCC2` (stereo unspecified), in data set [11], the inhibition constant Ki worked out at 0.05 nM. Further, in [10] (setting [19]), the EC50 stood at 950 nM.

Compound `Cc1cc(=O)oc2c3c(c4c(c12)OC(C)(C)C=C4)O[C@H](C)[C@@H](C)[C@@H]3O` [(+)-CORDATOLIDE A] registered an IC50 in data set [7] of 12.3 µM. This lies in the double-digit micromolar range. In data set [9], `O=c1oc2cc(O)c(O)cc2c2oc3cc4c(cc3c12)OCO4` gave an IC50 of 63.8 µM. In turn, `O=c1oc2cc(O)ccc2c(O)c1-c1ccc(O)cc1` displayed a 50% inhibitory concentration (IC50) in data set [1] of 2000 nM. In the case of `Cc1c(CO)c(=O)oc2c3c(ccc12)OC(C)(C)[C@H](OC(=O)C12CCC(C)(C(=O)O1)C2(C)C)[C@@H]3OC(=O)[C@@]12CC[C@](C)(C(=O)O1)C2(C)C`, the EC50 in data set [10] (read-out: EC50) is 4 nM. The compound `O=c1oc2ccccc2c(O)c1Sc1c(O)c2ccccc2oc1=O` returned an ID50 in data set [2] of 21 µM. Regarding `CC1(C)Oc2ccc3ccc(=O)oc3c2[C@@H](OC(=O)[C@@]23CC[C@](C)(C(=O)O2)C3(C)C)[C@H]1OC(=O)C12CCC(C)(C(=O)O1)C2(C)C`, the selectivity ratio in data set [12] was 137000. The EC50 in data set [10] (read-out: EC50) turned out to be 0.256 nM. As usually defined, the half-life is the time in which the quantity being followed falls by half. Low values mean fast loss, high ones slow loss. `N#Cc1ccc(S(=O)(=O)Nc2cccc(C(c3c(O)c4c(oc3=O)CCCCCC4)C3CC3)c2)cc1` (stereo unspecified): the Ki in data set [3] worked out at 0.8 nM. Moreover, the concentration for half-maximal inhibition (IC50) in [4] was 1500 nM. The same compound had a half-life in data set [13] of 360 min.

Turning to `COC(C)(C)C(O)COc1c2ccoc2cc2oc(=O)ccc12` (stereo unspecified), the EC50 in data set [14] (read-out: EC50) came to 33 µg/mL (≈ 104 µM). As to `CC(=O)CC(c1ccccc1)c1c(O)c2ccccc2oc1=O` (stereo unspecified) [WARFARIN], the half-maximal inhibitory concentration (IC50) in [8] is 30 µM. In the case of `CCNC(=O)Nc1cccc(C(c2c(O)c3c(oc2=O)CCCCCC3)C2CC2)c1` (stereo unspecified), the inhibition constant (Ki) in data set [3] was determined as 72 nM. As to `O=c1ccc2cc(O)c(O)cc2o1` [ESCULETIN], the EC50 in data set [14] (setting [19]) was determined as 2.51 µg/mL (≈ 14.1 µM). `COc1ccc(C2OC(COc3cc(=O)oc4ccccc34)=NN2C(C)=O)cc1` (stereo unspecified) had an MIC in data set [15] of 130 µg/mL (≈ 330 µM). On to `CC(=O)CC(c1ccccc1)c1c(O)c2ccc(C)c(C)c2oc1=O` (stereo unspecified), for which the IC50 in [1] came out at 1900 nM. For orientation: inhibition means how much of the control response was suppressed. As for `CCOC(=O)C(C(C)=O)C(c1cccc([N+](=O)[O-])c1)c1c(O)c2ccccc2oc1=O` (stereo unspecified), the inhibition in data set [16] was found to be 25%. The Survival in data set [17] was determined as 78%. Besides, the IC50 in data set [1] turned out to be 0.01 nM. For `CCC(Cc1ccccc1)c1cc(O)c(C(CC)c2ccccc2)c(=O)o1` (stereo unspecified), in [18], the IC50 was found to be 3000 nM. That is a single-digit micromolar value.

The record behind these values is ChEMBL document CHEMBL5257032, “Therapeutic potential of coumarins as antiviral agents” (Eur J Med Chem, 2016).
